Some test systems named below: HCC-2998 colon; MALME-3M melanoma; SR leukemia; NCI-H460 lung; HCT-116 colon; CCRF-CEM leukemia; RPMI-8226 leukemia; 786-0 renal; BT-549 breast; MDA-MB-231 breast.
Common to all, as to test: inhibition of tumour cell growth, NCI panel, 48 h

Values joined by “and” are separate entries in the source; they are usually repeats but may differ in a detail not shown here. Identical values can stand only once.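 Test compounds were applied to cells in 96-well plates for 48 hours at 5 doses. GI50 = concentration required for 50% inhibition of growth. TGI denotes the concentration required for complete inhibition of growth.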 A value given as a limit tells only on which side of the number the result lay.

Take `CO[C@H](C(=O)O[C@H]1C(=O)N2CCC3CCC1C32C)c1ccccc1` (some centres undefined): the TGI in the experiment with HCC-2998 colon, in the experiment on MALME-3M melanoma, in the experiment on SR leukemia, in the experiment with NCI-H460 lung, in the experiment on HCT-116 colon and in the experiment with CCRF-CEM leukemia was more than 100 µM throughout. For the same compound, the TGI in the experiment on RPMI-8226 leukemia and in the experiment on 786-0 renal was more than 100 µM each time.
As for `CCOC(=O)C1Nc2ccc([N+](=O)[O-])cc2[C@H]2OCC[C@@H]12` (some centres undefined), the TGI with HCC-2998 colon, in the experiment with MALME-3M melanoma, in the experiment on NCI-H460 lung, in the experiment with HCT-116 colon, in the experiment with CCRF-CEM leukemia and in the experiment on 786-0 renal was more than 100 µM in each case.
Take `C/C(=N\NC(=O)C[n+]1ccccc1)c1sc(-c2nc(C)c(/C(C)=N/NC(=O)C[n+]3ccccc3)s2)nc1C`: the TGI in the experiment with HCC-2998 colon, in the experiment with MALME-3M melanoma, in the experiment on NCI-H460 lung, with HCT-116 colon, in the experiment on RPMI-8226 leukemia and in the experiment on 786-0 renal was more than 100 µM throughout.
For `CCCCCCCCCCCCCCCCCc1cc(Cl)nc(Cl)n1`, the TGI with HCC-2998 colon, in the experiment on MALME-3M melanoma, in the experiment on SR leukemia, in the experiment with NCI-H460 lung, in the experiment on BT-549 breast and with CCRF-CEM leukemia was more than 100 µM each time. Moreover, the TGI with RPMI-8226 leukemia and with 786-0 renal was more than 100 µM throughout.
Regarding `CCOc1ccc(NC(=O)/C(Cc2nc3ccccc3[nH]c2=O)=N\O)cc1`, the TGI in the experiment on HCC-2998 colon, with MALME-3M melanoma, in the experiment with NCI-H460 lung, in the experiment with HCT-116 colon, in the experiment with CCRF-CEM leukemia and in the experiment on RPMI-8226 leukemia was more than 100 µM each time. Besides, the TGI with 786-0 renal is more than 100 µM.
With `COc1ccc(-c2cnc(SCC(=O)c3c(C)n(C)n(-c4ccccc4)c3=O)n2-c2ccc(OC)cc2)cc1`, the GI50 in the experiment with MDA-MB-231 breast is more than 50 µM; in the experiment with HCC-2998 colon, 44.9 µM; with NCI-H460 lung, 43.6 µM; in the experiment with HCT-116 colon, 20.3 µM; in the experiment on RPMI-8226 leukemia, 6.87 µM; in the experiment with 786-0 renal, more than 50 µM. The TGI in the experiment on MDA-MB-231 breast, in the experiment with HCC-2998 colon, with NCI-H460 lung, in the experiment with HCT-116 colon, in the experiment with RPMI-8226 leukemia and with 786-0 renal was more than 50 µM each time.
With `Clc1cc2nc[nH]c2cc1Cl`, the TGI in the experiment on HCC-2998 colon, with MALME-3M melanoma, in the experiment with NCI-H460 lung, with CCRF-CEM leukemia, in the experiment with RPMI-8226 leukemia and in the experiment on 786-0 renal was more than 100 µM in each case.
`CC(=O)O[C@H]1CC[C@@]2(C)C(=CC[C@@H]3C2CC[C@]2(C)C(=O)NC(=O)CC32)C1` (some centres undefined): the TGI with HCC-2998 colon, in the experiment with MALME-3M melanoma, in the experiment on NCI-H460 lung, with HCT-116 colon, in the experiment with CCRF-CEM leukemia and in the experiment with 786-0 renal was more than 100 µM throughout.
For `O=C1C[C@@H]2[C@@H](C=CC23CC3)N1O`, the TGI in the experiment with HCC-2998 colon, in the experiment with MALME-3M melanoma, in the experiment with NCI-H460 lung, in the experiment with HCT-116 colon, with CCRF-CEM leukemia and in the experiment with RPMI-8226 leukemia was more than 100 µM throughout. The TGI with 786-0 renal was more than 100 µM.
Regarding `N#CC1=C(c2ccccc2)NN(Cc2ccccc2)C(c2ccc(Cl)cc2)CC1=O` (centres undefined), the TGI was more than 100 µM with SR leukemia; 52.9 µM in the experiment on NCI-H460 lung; 48.5 µM in the experiment with HCT-116 colon; more than 100 µM with CCRF-CEM leukemia; 64.8 µM with RPMI-8226 leukemia; 98.4 µM in the experiment on 786-0 renal.
`CC(C)COC(=O)N1N=NC2C3CC(=O)C(O3)C21` (centres undefined): the TGI with HCC-2998 colon, in the experiment on MALME-3M melanoma, in the experiment with SR leukemia, in the experiment on NCI-H460 lung, with HCT-116 colon and with CCRF-CEM leukemia was more than 100 µM each time. Besides, the TGI in the experiment on RPMI-8226 leukemia and in the experiment with 786-0 renal was more than 100 µM throughout.
`CC(=O)OC1COC(n2c(O)c(N=Nc3ccc([N+](=O)[O-])cc3)c3cc(Br)c([N+](=O)[O-])cc32)C(OC(C)=O)C1OC(C)=O` (centres undefined): the TGI in the experiment on HCC-2998 colon, in the experiment on MALME-3M melanoma, in the experiment on SR leukemia, in the experiment on NCI-H460 lung, in the experiment on HCT-116 colon and in the experiment with CCRF-CEM leukemia was more than 100 µM in each case. Further, the TGI in the experiment on RPMI-8226 leukemia and in the experiment on 786-0 renal was more than 100 µM each time.
`COc1ccc(C(=C(C#N)C#N)c2ccc(OC)cc2)cc1`: the TGI in the experiment on HCC-2998 colon, with SR leukemia, in the experiment with NCI-H460 lung, in the experiment with HCT-116 colon, in the experiment on CCRF-CEM leukemia and in the experiment on RPMI-8226 leukemia was more than 100 µM each time. Moreover, the TGI in the experiment on 786-0 renal was more than 100 µM.
`CC1OC(OC23C(=O)CC(C)(O)CC2(O)C=CC2=C3C(=O)c3ccc(C4CC(OC5CCC(OC6CC(O)C(O)C(C)O6)C(C)O5)C(O)C(C)O4)c(O)c3C2=O)CCC1O` (centres undefined): the TGI with HCC-2998 colon is 31.1 µM and 27.3 µM; in the experiment with MALME-3M melanoma, 8.48 µM and 3.49 µM; in the experiment with SR leukemia it was more than 100 µM; with NCI-H460 lung, 38 µM and 34.3 µM; in the experiment with HCT-116 colon it was 28.5 µM and 18.6 µM; in the experiment on CCRF-CEM leukemia, more than 100 µM. The TGI with RPMI-8226 leukemia is more than 100 µM; in the experiment on 786-0 renal it was 31.7 µM and 29.5 µM. Moreover, the GI50 with HCT-116 colon is 15.1 µM and 5.78 µM.
For the compound `CN1CCN2c3ccccc3CC(C#N)(C#N)C2C1` (centres undefined), the TGI in the experiment with HCC-2998 colon, in the experiment on MALME-3M melanoma, with NCI-H460 lung, in the experiment on HCT-116 colon, with CCRF-CEM leukemia and with RPMI-8226 leukemia was more than 100 µM each time. In the experiment on 786-0 renal, this compound displayed a TGI of more than 100 µM.
Take `OCC(O)C(O)C(O)c1nn[nH]n1` (centres undefined): the TGI in the experiment on MALME-3M melanoma, with SR leukemia, in the experiment on NCI-H460 lung, with HCT-116 colon, with CCRF-CEM leukemia and with RPMI-8226 leukemia was more than 100 µM in each case. Also, the TGI with 786-0 renal was more than 100 µM.
Consider `CC(C)(C)c1cc(O)c2c(c1O)C(=O)CCC2`, for which the TGI is more than 100 µM in the experiment with HCC-2998 colon; more than 100 µM in the experiment on NCI-H460 lung; more than 100 µM with HCT-116 colon; more than 100 µM in the experiment with CCRF-CEM leukemia; 54.1 µM in the experiment with RPMI-8226 leukemia; more than 100 µM with 786-0 renal.

The values above are taken from PubChem BioAssay (NCI).
